# US20220106304A1, “Transcription Factor BRN2 Inhibitory Compounds as Therapeutics and Methods for Their Use” (The University of British Columbia, priority 2018, published 2022)
# Legend:
# [1] = Liver microsome metabolic stability, MLM; type: in vitro ADME; details: MLM (single value or second of two), 1 μM compound, 0.25 mg/mL protein; for Met Stab % (60 mins HLM/MLM): percent remaining at 60 min, 1 mM NADPH; for half-life at 1 µM: mouse, liver microsomes, pH 7.4, read-out: T1/2 in (mins HLM/MLM)
# Experimental: (§1) Potassium phosphate buffer (Kphos) was prepared by adding 0.647 g potassium phosphate monobasic (KH2PO4) and 3.527 g potassium phosphate dibasic ([…]) to 400 mL of Milli-Q water. pH of the buffer was adjusted to 7.4 and volume was made up to 500 mL.
# (§2) Microsomes (20 mg/mL) were diluted in KH2PO4 buffer to prepare a concentration of 0.357 mg/mL.
# (§3) Stock solutions of BRN2 inhibitors were prepared in DMSO at a concentration of 1 mM
# (§4) A stock solution of 3.33 mM NADPH (3.33×) was prepared by dissolving appropriate amount of NADPH in KH2PO4 buffer.
# (§5) Total Incubation volume: 100 μL
# (§6) Compound concentration: 1 μM
# (§7) Protein Concentration: 0.25 mg/mL
# (§8) An 1120 μL aliquot of Kphos buffer (50 mM, pH 7.4) containing liver microsomes (0.357 mg/mL) were added to individual 2 mL tubes (final concentration 0.25 mg/mL). Test compounds (1 mM) and positive controls were directly spiked into respective tubes to prepare a concentration of 1.428 μM (final concentration 1 μM). From the above mix, 70 μL was added to individual wells of 96 well reaction plates and pre-incubated in a 37° C. water bath for 5 min. All the reactions were initiated by adding 30 μL of 3.33 mM NADPH (final concentration 1 mM). Reactions without NADPH and buffer controls (minus NADPH) at 0 min and 60 min were also incubated to rule out non-NADPH metabolism or chemical instability in the incubation buffer. All reactions were terminated using 100 μL of ice-cold acetonitrile containing internal standard at 0, 5, 15, 30 and 60 min. The plates were centrifuged at 4000 RPM for 15 min and 100 μL aliquots were submitted for analysis by LC-MS/MS.
# (§9) Samples were monitored for parent compounds disappearance in MRM mode using LC-MS/MS.
# (§10) The percent remaining of test compounds and positive control in each sample was determined by considering peak area ratio in the 0 minute sample as 100%. The Half-life of compounds in microsomes is calculated by formula:
# (§11) Half-life (t½) (min)=0.693/k, where k is gradient of line determined from plot of peak area ratio (compound peak area/internal standard peak area) against time.
# (§12) In vitro intrinsic clearance (CL'int) (units in mL/min/kg) was calculated using the formula.
# (§13) [formula] • For liver microsomes, scaling factor used was 45 mg microsomal protein per gm liver. • Indicates liver weight (gm) which varies species wise. For mice the liver weights are 90 gm.
# (§14) Where data is not available “na” is inserted.
# BRN2 = target: T1, BRN2 (Homo sapiens, UniProt P20265); assay: cell-based; details: negative = activation; for inhibition at 10 µM: read-out: % BRN2 Inhibition (10 μM), 10 μM compound, 24 hours, 42D^ENZR cells stably expressing BRN2-luciferase reporter; for inhibition at 30 µM: read-out: % BRN2 Inhibition (30 μM), 30 μM compound, 24 hours, 42D^ENZR cells stably expressing BRN2-luciferase reporter
# T1 sequence (P20265 1-443): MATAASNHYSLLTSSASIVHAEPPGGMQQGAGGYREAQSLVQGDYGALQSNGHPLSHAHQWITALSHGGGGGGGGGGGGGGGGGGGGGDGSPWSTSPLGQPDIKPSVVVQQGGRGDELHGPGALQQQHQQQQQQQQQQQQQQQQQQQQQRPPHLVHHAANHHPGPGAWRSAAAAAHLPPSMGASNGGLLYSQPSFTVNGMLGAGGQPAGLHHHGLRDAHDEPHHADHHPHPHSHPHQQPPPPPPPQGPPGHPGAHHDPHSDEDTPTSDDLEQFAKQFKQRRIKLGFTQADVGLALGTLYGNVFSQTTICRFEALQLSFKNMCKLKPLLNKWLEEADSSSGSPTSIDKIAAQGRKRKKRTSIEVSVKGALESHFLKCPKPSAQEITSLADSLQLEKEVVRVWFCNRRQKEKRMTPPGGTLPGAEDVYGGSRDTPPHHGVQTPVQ
# Excerpt: Decreased expression of luciferase protein is validated via western blot to confirm downregulation and avoid false positive molecules that inhibit luciferase protein activity and not BRN2-drive luciferase expression. Molecules are prioritized by their inhibition potency to measure direct interaction with BRN2 in Step 2.
# In TABLES 1 and 2, when a single value is mentioned in columns Met Stab % and T½, it refers to compound's stability in MLM and when two values are given they represent HLM/MLM. There is a distinction in TABLES 1 and 2 difference between “Active” and “Specific” or “Specificity”. Compounds are first tested to quantify inhibition of BRN2 transcriptional activity in a luciferase assay to determine “Activity” at […] and 30 μM concentrations. […] Where data is not available “na” is inserted. Where data has yet to be calculated the notation “nc” is used.
# [2] = Liver microsome metabolic stability, HLM; type: in vitro ADME; details: HLM (first of two values), 1 μM compound, 0.25 mg/mL protein; for Met Stab % (60 mins HLM/MLM): percent remaining at 60 min, 1 mM NADPH; for half-life at 1 µM: human, liver microsomes, pH 7.4, read-out: T1/2 in (mins HLM/MLM)
# Experimental: as §1, §2, §3, §4, §5, §6, §7, §8, §9, §10, §11, §12, §13, §14
compound,measurement,setting,value
c1ccc2c(c1)CCC2c1cnn(-c2nc3ccccc3s2)c1 (stereo not shown) [VPC-7-43],Met Stab % (60 mins HLM/MLM),[1],5%
same,half-life at 1 µM,[1],14 min
same,inhibition at 10 µM,BRN2,2%
same,inhibition at 30 µM,BRN2,41%
same,Met Stab % (60 mins HLM/MLM),[2],20%
same,half-life at 1 µM,[2],27 min
c1ccc2c(c1)CCC2c1ccc(-c2nc3ccccc3s2)o1 (stereo not shown) [VPC-7-44],Met Stab % (60 mins HLM/MLM),[1],44%
same,half-life at 1 µM,[1],52 min
same,inhibition at 10 µM,BRN2,83%
same,inhibition at 30 µM,BRN2,93%
same,Met Stab % (60 mins HLM/MLM),[2],62%
same,half-life at 1 µM,[2],> 60 min
"Cn1c(-c2ccc(-c3ccccc3F)o2)nc2c(F)cccc21 [VPC-18-31, 4-Fluoro-2-(5-(2-fluorophenyl)furan-2-yl)-1-methyl-1H-benzo[d]imidazole]",Met Stab % (60 mins HLM/MLM),[1],0%
same,inhibition at 10 µM,BRN2,67.9%
same,inhibition at 30 µM,BRN2,77.8%
same,Met Stab % (60 mins HLM/MLM),[2],17%
same,half-life at 1 µM,[2],2 min
"O=[N+]([O-])c1ccc2nc(-c3ccc(-c4ccccc4F)o3)[nH]c2c1 [VPC-18-32, 2-(5-(2-Fluorophenyl)furan-2-yl)-6-nitro-1H-benzo[d]imidazole]",Met Stab % (60 mins HLM/MLM),[1],4%
same,half-life at 1 µM,[1],12 min
same,inhibition at 10 µM,BRN2,83.7%
same,inhibition at 30 µM,BRN2,95.5%
same,Met Stab % (60 mins HLM/MLM),[2],20%
same,half-life at 1 µM,[2],26 min
"c1ccc(-c2nc(-c3cc4ccccc4o3)cs2)cc1 [VPC-18-33, 4-(Benzofuran-2-yl)-2-phenylthiazole]",Met Stab % (60 mins HLM/MLM),[1],1%
same,half-life at 1 µM,[1],10 min
same,inhibition at 10 µM,BRN2,22.4%
same,inhibition at 30 µM,BRN2,57.2%
same,Met Stab % (60 mins HLM/MLM),[2],30%
same,half-life at 1 µM,[2],36 min
"COc1ccccc1-c1ccc(-c2nc3ccccc3n2C)o1 [VPC-18-35, 2-(5-(2-Methoxyphenyl)furan-2-yl)-1-methyl-1H-benzo[d]imidazole]",Met Stab % (60 mins HLM/MLM),[1],0%
same,half-life at 1 µM,[1],5 min
same,inhibition at 10 µM,BRN2,51.6%
same,inhibition at 30 µM,BRN2,95.8%
same,Met Stab % (60 mins HLM/MLM),[2],4%
same,half-life at 1 µM,[2],13 min
"CCn1c(-c2ccc(-c3ccccc3)o2)nc2ccccc21 [VPC-18-36, 1-Ethyl-2-(5-phenylfuran-2-yl)-1H-benzo[d]imidazole]",Met Stab % (60 mins HLM/MLM),[1],2%
same,half-life at 1 µM,[1],13 min
same,inhibition at 10 µM,BRN2,57.5%
same,inhibition at 30 µM,BRN2,93.4%
same,Met Stab % (60 mins HLM/MLM),[2],15%
same,half-life at 1 µM,[2],22 min
"Cn1c(-c2ccc(-c3ccc(F)cc3F)o2)nc2ccccc21 [VPC-18-41, 2-(5-(2,4-Difluorophenyl)furan-2-yl)-1-methyl-1H-benzo[d]imidazole]",Met Stab % (60 mins HLM/MLM),[1],0/0%
same,inhibition at 10 µM,BRN2,57.5%
same,inhibition at 30 µM,BRN2,91.1%
same,Met Stab % (60 mins HLM/MLM),[2],0/0%
"Cn1c(-c2ccc(-c3ccccc3)o2)nc2ccc(Cl)cc21 [VPC-18-42, 6-Chloro-1-methyl-2-(5-phenylfuran-2-yl)-1H-benzo[d]imidazole]",Met Stab % (60 mins HLM/MLM),[1],1%
same,half-life at 1 µM,[1],11 min
same,inhibition at 10 µM,BRN2,77.3%
same,inhibition at 30 µM,BRN2,76.8%
same,Met Stab % (60 mins HLM/MLM),[2],15%
same,half-life at 1 µM,[2],23 min
"Cn1c(-c2csc(-c3ccccc3F)n2)nc2ccc(F)cc21 [VPC-18-45, 4-(6-Fluoro-1-methyl-1H-benzo[d]imidazol-2-yl)-2-(2-fluorophenyl)thiazole]",Met Stab % (60 mins HLM/MLM),[1],22%
same,half-life at 1 µM,[1],32 min
same,inhibition at 10 µM,BRN2,7.53%
same,inhibition at 30 µM,BRN2,47.2%
same,Met Stab % (60 mins HLM/MLM),[2],35%
same,half-life at 1 µM,[2],42 min
"Cn1c(-c2ccc(-c3ccccc3)o2)nc2ccc(S(N)(=O)=O)cc21 [VPC-18-47, 1-Methyl-2-(5-phenylfuran-2-yl)-1H-benzo[d]imidazole-6-sulfonamide]",Met Stab % (60 mins HLM/MLM),[1],53%
same,half-life at 1 µM,[1],> 60 min
same,inhibition at 10 µM,BRN2,39.8%
same,inhibition at 30 µM,BRN2,82.1%
same,Met Stab % (60 mins HLM/MLM),[2],54%
same,half-life at 1 µM,[2],> 60 min
"O=[N+]([O-])c1ccc2nc(-c3csc(-c4ccco4)n3)[nH]c2c1 [VPC-18-48, 2-(Furan-2-yl)-4-(6-nitro-1H-benzo[d]imidazol-2-yl)thiazole]",Met Stab % (60 mins HLM/MLM),[1],2%
same,half-life at 1 µM,[1],10 min
same,inhibition at 10 µM,BRN2,-6.56%
same,inhibition at 30 µM,BRN2,91.2%
same,Met Stab % (60 mins HLM/MLM),[2],9%
same,half-life at 1 µM,[2],17 min
"Cc1c(-c2csc(-c3ccco3)n2)oc2ccccc12 [VPC-18-53, 2-(Furan-2-yl)-4-(3-methylbenzofuran-2-yl)thiazole]",Met Stab % (60 mins HLM/MLM),[1],2%
same,half-life at 1 µM,[1],2 min
same,inhibition at 10 µM,BRN2,78.1%
same,inhibition at 30 µM,BRN2,84.5%
same,Met Stab % (60 mins HLM/MLM),[2],39%
same,half-life at 1 µM,[2],42 min
FC(F)(F)c1ccc2cc(-c3csc(-c4cc[nH]c4)n3)oc2c1 [VPC-18-111],Met Stab % (60 mins HLM/MLM),[1],38%
same,half-life at 1 µM,[1],48 min
same,inhibition at 10 µM,BRN2,96.2%
same,inhibition at 30 µM,BRN2,98.6%
c1ccc2c(-c3cnc(-c4ccoc4)s3)coc2c1 [VPC-18-112],Met Stab % (60 mins HLM/MLM),[1],1%
same,half-life at 1 µM,[1],9 min
same,inhibition at 10 µM,BRN2,41.8%
same,inhibition at 30 µM,BRN2,81.6%
Oc1ccc2cc(-c3csc(-c4ccco4)n3)oc2c1 [VPC-18-113],Met Stab % (60 mins HLM/MLM),[1],3%
same,half-life at 1 µM,[1],12 min
same,inhibition at 10 µM,BRN2,94%
same,inhibition at 30 µM,BRN2,94%
Clc1ccc2cc(-c3csc(C4CCCO4)n3)oc2c1 (stereo not shown) [VPC-18-114],Met Stab % (60 mins HLM/MLM),[1],14%
same,half-life at 1 µM,[1],25 min
same,inhibition at 10 µM,BRN2,92%
same,inhibition at 30 µM,BRN2,95%
COc1ccc2cc(-c3csc(-c4ccco4)n3)oc2c1 [VPC-18-118],Met Stab % (60 mins HLM/MLM),[1],1%
same,half-life at 1 µM,[1],9 min
same,inhibition at 10 µM,BRN2,74%
same,inhibition at 30 µM,BRN2,92.5%
FC(F)(F)c1ccc2cc(-c3coc(-c4ccco4)n3)oc2c1 [VPC-18-120],Met Stab % (60 mins HLM/MLM),[1],6%
same,half-life at 1 µM,[1],13 min
same,inhibition at 10 µM,BRN2,88.9%
same,inhibition at 30 µM,BRN2,88.8%
Clc1ccc2cc(-c3coc(-c4ccco4)n3)oc2c1 [VPC-18-121],Met Stab % (60 mins HLM/MLM),[1],0%
same,half-life at 1 µM,[1],8 min
same,inhibition at 10 µM,BRN2,92.7%
same,inhibition at 30 µM,BRN2,93.5%
